Structures can show the parent of a compound that is named as a salt.
Target: T1, human recombinant ENPP1 (Homo sapiens, UniProt P22413)
T1 construct: purchased R&D systems
T1 sequence (P22413 1-925): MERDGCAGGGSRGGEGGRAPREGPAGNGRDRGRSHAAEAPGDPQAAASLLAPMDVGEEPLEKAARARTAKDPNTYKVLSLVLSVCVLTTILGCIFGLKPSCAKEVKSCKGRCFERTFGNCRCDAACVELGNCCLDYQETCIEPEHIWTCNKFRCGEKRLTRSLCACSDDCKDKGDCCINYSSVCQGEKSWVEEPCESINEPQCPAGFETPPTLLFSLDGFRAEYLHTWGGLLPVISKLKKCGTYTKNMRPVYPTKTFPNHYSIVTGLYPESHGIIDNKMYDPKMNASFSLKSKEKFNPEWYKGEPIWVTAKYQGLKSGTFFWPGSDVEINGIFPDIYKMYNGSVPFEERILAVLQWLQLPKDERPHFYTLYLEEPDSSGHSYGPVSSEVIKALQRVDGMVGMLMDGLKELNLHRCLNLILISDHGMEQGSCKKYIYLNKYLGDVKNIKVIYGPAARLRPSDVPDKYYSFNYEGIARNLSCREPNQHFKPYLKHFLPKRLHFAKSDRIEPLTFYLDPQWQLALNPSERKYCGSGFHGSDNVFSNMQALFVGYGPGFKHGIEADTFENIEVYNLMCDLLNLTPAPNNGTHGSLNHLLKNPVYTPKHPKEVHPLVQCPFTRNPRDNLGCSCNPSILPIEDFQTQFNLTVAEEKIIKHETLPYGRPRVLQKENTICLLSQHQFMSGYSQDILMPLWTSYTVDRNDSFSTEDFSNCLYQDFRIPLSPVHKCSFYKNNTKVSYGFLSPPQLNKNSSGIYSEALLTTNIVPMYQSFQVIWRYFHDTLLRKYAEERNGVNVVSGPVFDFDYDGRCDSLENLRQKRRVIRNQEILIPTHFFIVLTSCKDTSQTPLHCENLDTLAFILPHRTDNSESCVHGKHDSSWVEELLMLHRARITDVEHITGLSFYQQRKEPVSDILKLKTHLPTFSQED
Test: in vitro recombinant human ENPP1 enzymatic assay (AMP-Glo, cGAMP substrate)
Assay type: biochemical
Settings: for % inhibition: ENPP1, test concentration not given; for IC50: average ± SD from two or three independent repeats
Description: ENPP1 hydrolyses nucleotides or nucleotide derivatives and produces nucleoside-5′-monophosphates and pyrophosphates. ENPP1 also hydrolyses 2′3′-cGAMP and produces 5′-adenosine monophosphate (AMP) and 5′ guanosine monophosphate (GMP). The produced AMP from the reaction is detected using the AMP-Glo® kit (Promega). The assay kit consists of two reagents; one to terminate the AMP-generating enzymatic reaction, remove ATP and convert AMP produced into ADP, and a second reagent to convert ADP to ATP, which is used to generate a luminescence in a luciferase reaction. The amount of light measured is proportional to the amount of AMP produced by ENPP1.
The final assay reaction mixture contains a buffer of 50 mM Tris (pH 8.5), 250 mM NaCl, 0.5 mM CaCl2, 1 μM ZnCl2, 5% glycerol and 1% DMSO. Serially diluted ENPP1 inhibitors (usually range from 10 μM to 0.5 nM) are pre-incubated with human recombinant ENPP1 enzyme (R&D systems) at 3 ng/reaction for 5–10 min at room temperature (RT). The reaction is initiated by adding cGAMP (at final concentration of 5 μM) and incubating for 90 min at 37 °C. At the end of incubation, the reaction is stopped by adding 10 μL of AMP-Glo reagent I and followed by incubation at RT for one hour. After incubation, 20 μL of AMP detection solution (mixture of AMP-Glo II reagent and Kinase-Glo one at 1:100 ratio) is added and incubated at RT for one hour. The luminescence signal generated is measured using the ClarioStar plate reader (BMG Labtech). Maximal activity control (containing enzyme and substrate in presence of 1% DMSO only; MAX) and background control (containing substrate and 1% DMSO; MIN) are evaluated simultaneously. In each experiment, serially diluted reference ENPP1 inhibitor is tested together. The IC50 values for % remaining activity versus compound concentration are determined by fitting the inhibition curves using a three-parameter variable method in GraphPad Prism® software. Triplicate wells are run at each inhibitor concentration and averaged IC50 value for each compound is calculated.

SMILES | % inhibition (Table 1) [%] | IC50 (Table 1) [nM] | % inhibition (Table 2) [%] | IC50 (Table 2) [nM]
Cl.O=S(=O)(NCC1CCN(c2ncnc3[nH]ccc23)CC1)C1CC1 [20c, N-((1-(7H-Pyrrolo[2,3-d]pyrimidin-4-yl)piperidin-4-yl)methyl)cyclopropanesulfonamide hydrochloride] | 22 |  |  | 
CC(NS(N)(=O)=O)C1CCN(c2ncnc3[nH]ccc23)CC1 (stereo not drawn) [18o, N-(1–(1-(7H-Pyrrolo[2,3-d]pyrimidin-4-yl)piperidin-4-yl)ethyl)methanesulfamide hydrochloride] | 99 | 250 ± 0.028 |  | 
NS(=O)(=O)NCC1CCN(c2ncnc3c2ccn3-c2cccnc2)CC1 [18l, N-((1-(7-(Pyridin-3-yl)-7H-pyrrolo[2,3-d]pyrimidin-4-yl)piperidin-4-yl)methyl)methanesulfamide hydrochloride] | 71 | 1853 ± 1.16 |  | 
NS(=O)(=O)NC1CCN(c2ncnc3[nH]ccc23)CC1 [18q, N-(1-(7H-Pyrrolo[2,3-d]pyrimidin-4-yl)piperidin-4-yl)methanesulfamide hydrochloride] | 71 | 3323 ± 0.298 |  | 
NS(=O)(=O)NCC1CCN(c2ncnc3c2ccn3-c2ccoc2)CC1 [18k, N-((1–(7-(Furan-3-yl)-7H-pyrrolo[2,3-d]pyrimidin-4-yl)piperidin-4-yl)methyl)methanesulfamide hydrochloride] | 100 | 54.1 ± 0.001 |  | 
NS(=O)(=O)NCCC1CCN(c2ncnc3[nH]ccc23)CC1 [18a, N-(2–(1-(7H-Pyrrolo[2,3-d]pyrimidin-4-yl)piperidin-4-yl)ethyl)methanesulfamide hydrochloride] | 99 |  |  | 
Cl.O=S(=O)(NCC1CCN(c2ncnc3[nH]ccc23)CC1)c1cccs1 [20a, N-((1-(7H-Pyrrolo[2,3-d]pyrimidin-4-yl)piperidin-4-yl)methyl)thiophene-2-sulfonamide hydrochloride] | 37 |  |  | 
NS(=O)(=O)NCC1CCN(c2ncnc3c2ccn3Cc2ccccc2)CC1 [18j, N-((1–(7-Benzyl-7H-pyrrolo[2,3-d]pyrimidin-4-yl)piperidin-4-yl)methyl)methanesulfamide hydrochloride] | 17 |  |  | 
CSc1nc(N2CCC(CCNS(N)(=O)=O)CC2)c2cc[nH]c2n1 [18b] | 34 | 21610 ± 2.16 |  | 
NS(=O)(=O)NCC1CCN(c2ncnc3c2ccn3-c2ccccc2)CC1 [18g, N-((1–(7-Phenyl-7H-pyrrolo[2,3-d]pyrimidin-4-yl)piperidin-4-yl)methyl)methanesulfamide hydrochloride hydrochloride] | 99 | 298 ± 0.041 |  | 
CC(C)n1ccc2c(N3CCC(CNS(N)(=O)=O)CC3)ncnc21 [18e, N-((1–(7-Isopropyl-7H-pyrrolo[2,3-d]pyrimidin-4-yl)piperidin-4-yl)methyl)methanesulfamide hydrochloride] | 75 | 20660 ± 5.02 |  | 
Cc1ccc(S(=O)(=O)NCC2CCN(c3ncnc4[nH]ccc34)CC2)cc1.Cl [20b, N-((1-(7H-Pyrrolo[2,3-d]pyrimidin-4-yl)piperidin-4-yl)methyl)-4-methylbenzenesulfonamide hydrochloride] | 62 |  |  | 
COc1ccc(-n2ccc3c(N4CCC(CNS(N)(=O)=O)CC4)ncnc32)cc1 [18i, N-((1–(7-(4-Methoxyphenyl)-7H-pyrrolo[2,3-d]pyrimidin-4-yl)piperidin-4-yl)methyl)methanesulfamide hydrochloride] | 37 |  |  | 
NS(=O)(=O)NCC1CCN(c2ncnc3[nH]ccc23)CC1 [18c, N-((1–(7H-Pyrrolo[2,3-d]pyrimidin-4-yl)piperidin-4-yl)methyl)methanesulfamide hydrochloride] | 100 | 19 ± 0.016 |  | 
Cn1ccc2c(N3CCC(CNS(N)(=O)=O)CC3)ncnc21 [18d, N-((1–(7-Methyl-7H-pyrrolo[2,3-d]pyrimidin-4-yl)piperidin-4-yl)methyl)methanesulfamide hydrochloride] | 100 | 51.4 ± 0.002 |  | 
Cc1cc2c(N3CCC(CNS(N)(=O)=O)CC3)ncnc2[nH]1 [18n, N-((1–(6-Methyl-7H-pyrrolo[2,3-d]pyrimidin-4-yl)piperidin-4-yl)methyl)methanesulfamide hydrochloride] | 99 | 218 ± 0.019 |  | 
NS(=O)(=O)NCC1CCN(c2ncnc3c2ccn3C2CC2)CC1 [18f, N-((1–(7-Cyclopropyl-7H-pyrrolo[2,3-d]pyrimidin-4-yl)piperidin-4-yl)methyl)methanesulfamide hydrochloride hydrochloride] | 100 | 74 ± 0.052 |  | 
NS(=O)(=O)NCC1CCN(c2ncnc3c2ccn3-c2ccc(F)cc2)CC1 [18h, N-((1–(7-(4-Fluorophenyl)-7H-pyrrolo[2,3-d]pyrimidin-4-yl)piperidin-4-yl)methyl)methanesulfamide hydrochloride] | 54 |  |  | 
Cc1c[nH]c2ncnc(N3CCC(CNS(N)(=O)=O)CC3)c12 [18m, N-((1–(5-Methyl-7H-pyrrolo[2,3-d]pyrimidin-4-yl)piperidin-4-yl)methyl)methanesulfamide hydrochloride] | 94 | 462 ± 0.17 |  | 

Next, values leading:

% inhibition (Table 1) [%] | IC50 (Table 1) [nM] | % inhibition (Table 2) [%] | IC50 (Table 2) [nM] | SMILES
 |  | 0 |  | NS(=O)(=O)Nc1ccc(-c2ncnc3[nH]ccc23)cc1 [25a]
 |  | 73 |  | NS(=O)(=O)NCc1ccc(-c2ncnc3[nH]ccc23)cc1F [25c, N-(2-Fluoro-4-(7H-pyrrolo[2,3-d]pyrimidin-4-yl)benzyl)methanesulfamide hydrochloride]
 |  | 100 |  | CC(NS(N)(=O)=O)c1ccc(-c2ncnc3[nH]ccc23)cc1 (stereo not drawn) [25j, N-(1–(4-(7H-Pyrrolo[2,3-d]pyrimidin-4-yl)phenyl)ethyl)methanesulfamide hydrochloride]
 |  | 98 | 1466 ± 0.044 | CC(C)(NS(N)(=O)=O)c1ccc(-c2ncnc3[nH]ccc23)cc1 [25h, N-(2–(4-(7H-Pyrrolo[2,3-d]pyrimidin-4-yl)phenyl)propan-2-yl)methanesulfamide hydrochloride]
 |  | 53 | 4769 ± 0.455 | NS(=O)(=O)NCc1cccc(-c2ncnc3[nH]ccc23)c1 [25g, N-(3-(7H-Pyrrolo[2,3-d]pyrimidin-4-yl)benzyl)methanesulfamide hydrochloride]
 |  | 76 | 7597 ± 1.27 | NS(=O)(=O)NCc1ccc(-c2ncnc3[nH]ccc23)cc1 [25d, N-(4-(7H-Pyrrolo[2,3-d]pyrimidin-4-yl)benzyl)methanesulfamide hydrochloride]
 |  | 72 |  | Cn1ccc2c(-c3ccc(CNS(N)(=O)=O)cc3)ncnc21 [25e, N-(4-(7-Methyl-7H-pyrrolo[2,3-d]pyrimidin-4-yl)benzyl)methanesulfamide hydrochloride]
 |  | 33 |  | NS(=O)(=O)Nc1ccc(-c2ccnc3[nH]ccc23)cc1 [25b, N-(4-(1H-Pyrrolo[2,3-b]pyridin-4-yl)phenyl)methanesulfamide hydrochloride]
